Source: the NIST ThermoML archive (doi:10.1021/je300280s)
Where “and” joins values, the source holds several entries; their conditions need not be identical. Equal values may be shown once.

Assays:
[1] = excess molar enthalpy (molar enthalpy of mixing); xn = mol fraction of the nth substance listed; conditions: 318.15 K; 101.3 kPa; Liquid; Flow calorimetry; x1 = 0.006164
[2] = xn = mol fraction of the nth substance listed; conditions: 101.3 kPa, Liquid, Vibrating tube method

CC(=O)C(C)=O [2,3-butanedione] + O
Conditions | excess molar enthalpy [kcal/mol]
[1] | -0.0202

[2]
Conditions | mass density
288.15 K, x1 = 0.002059 | 1001.04 kg/m3
288.15 K, x1 = 0.002062 | 1001.04 kg/m3
288.15 K, x1 = 0.003086 | 1002 kg/m3
288.15 K, x1 = 0.003089 | 1002 kg/m3
288.15 K, x1 = 0.004111 | 1002.95 kg/m3
288.15 K, x1 = 0.004113 | 1002.96 kg/m3
288.15 K, x1 = 0.005132 | 1003.91 kg/m3
288.15 K, x1 = 0.005135 | 1003.91 kg/m3
288.15 K, x1 = 0.006153 | 1004.87 kg/m3
288.15 K, x1 = 0.006157 | 1004.87 kg/m3
293.15 K, x1 = 0.001031 | 999.136 kg/m3
293.15 K, x1 = 0.00206 | 1000.07 kg/m3
293.15 K, x1 = 0.003088 | 1001 kg/m3
293.15 K, x1 = 0.004114 | 1001.9 kg/m3
293.15 K, x1 = 0.005136 | 1002.82 kg/m3
293.15 K, x1 = 0.006158 | 1003.73 kg/m3
298.15 K, x1 = 0.001032 | 997.937 kg/m3 and 997.929 kg/m3
298.15 K, x1 = 0.002061 | 998.816 kg/m3
298.15 K, x1 = 0.002062 | 998.823 kg/m3
298.15 K, x1 = 0.003089 | 999.697 kg/m3 and 999.692 kg/m3
298.15 K, x1 = 0.004113 | 1000.57 kg/m3
298.15 K, x1 = 0.004114 | 1000.56 kg/m3
298.15 K, x1 = 0.005137 | 1001.45 kg/m3 and 1001.43 kg/m3
298.15 K, x1 = 0.00616 | 1002.32 kg/m3 and 1002.3 kg/m3
303.15 K, x1 = 0.001032 | 996.49 kg/m3
303.15 K, x1 = 0.002061 | 997.341 kg/m3
303.15 K, x1 = 0.003089 | 998.182 kg/m3
303.15 K, x1 = 0.004114 | 999.012 kg/m3
303.15 K, x1 = 0.005137 | 999.84 kg/m3
303.15 K, x1 = 0.006159 | 1000.66 kg/m3
308.15 K, x1 = 0.001031 | 994.828 kg/m3 and 994.831 kg/m3
308.15 K, x1 = 0.00206 | 995.637 kg/m3
308.15 K, x1 = 0.003086 | 996.432 kg/m3
308.15 K, x1 = 0.003088 | 996.443 kg/m3
308.15 K, x1 = 0.004109 | 997.222 kg/m3
308.15 K, x1 = 0.004114 | 997.237 kg/m3
308.15 K, x1 = 0.005131 | 998.031 kg/m3
308.15 K, x1 = 0.005137 | 998.026 kg/m3
308.15 K, x1 = 0.006152 | 998.821 kg/m3
308.15 K, x1 = 0.00616 | 998.816 kg/m3
313.15 K, x1 = 0.001032 | 992.976 kg/m3
313.15 K, x1 = 0.002062 | 993.745 kg/m3
313.15 K, x1 = 0.003091 | 994.499 kg/m3
313.15 K, x1 = 0.004116 | 995.251 kg/m3
313.15 K, x1 = 0.005139 | 996.015 kg/m3
313.15 K, x1 = 0.006161 | 996.763 kg/m3
318.15 K, x1 = 0.001031 | 990.924 kg/m3
318.15 K, x1 = 0.001032 | 990.928 kg/m3
318.15 K, x1 = 0.00206 | 991.645 kg/m3
318.15 K, x1 = 0.002062 | 991.65 kg/m3
318.15 K, x1 = 0.003088 | 992.362 kg/m3
318.15 K, x1 = 0.00309 | 992.361 kg/m3
318.15 K, x1 = 0.004114 | 993.082 kg/m3
318.15 K, x1 = 0.004116 | 993.069 kg/m3
318.15 K, x1 = 0.005137 | 993.801 kg/m3
318.15 K, x1 = 0.00514 | 993.799 kg/m3
318.15 K, x1 = 0.006159 | 994.517 kg/m3
318.15 K, x1 = 0.006164 | 994.503 kg/m3
